Measurements: patent US20250326814A1, “MODIFIED OXYNTOMODULIN AND METHODS OF USE THEREOF” (OPKO BIOLOGICS LTD., priority 2024, published 2025)
One block for each compound: values may come before it. Starred links: 1 amine or outer side, 2 acyl side, 3 side chain; linkers in the order of their positions; H or OH if unused. Non-standard residues stand in square brackets, D forms with d. Residues, ends and D or L forms follow the SMILES beside them. Groups on a side chain read outwards from the residue. *: point of attachment. C20 diacid = O=C(O)CCCCCCCCCCCCCCCCCCC(=O)*; γGlu = O=C(O)[C@H](CCC(=O)[*:2])N[*:1]; AEEA = NCCOCCOCC(=O)O; Aib = CC(C)(N)C(=O)O

What was measured:
GLP1 [1] = molecular target: T1, GLP1 (Homo sapiens, UniProt P43220); assay: GLP-1 activity in vitro of PEGylated and acylated OXM peptide analogs (Table 12); format: cell-based
T1 sequence (P43220 24-463): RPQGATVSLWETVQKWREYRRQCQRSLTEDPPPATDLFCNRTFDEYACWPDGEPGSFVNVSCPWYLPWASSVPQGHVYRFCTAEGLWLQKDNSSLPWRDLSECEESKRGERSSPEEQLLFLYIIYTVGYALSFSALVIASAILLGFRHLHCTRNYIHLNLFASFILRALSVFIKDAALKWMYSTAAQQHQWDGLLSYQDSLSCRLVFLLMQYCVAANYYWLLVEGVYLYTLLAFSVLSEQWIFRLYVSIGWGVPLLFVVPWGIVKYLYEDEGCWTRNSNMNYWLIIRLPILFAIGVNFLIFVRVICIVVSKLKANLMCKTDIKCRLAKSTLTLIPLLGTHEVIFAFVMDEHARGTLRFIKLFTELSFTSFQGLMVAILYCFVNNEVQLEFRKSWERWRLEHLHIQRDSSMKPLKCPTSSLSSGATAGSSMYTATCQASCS
Experimental: (§1) The potential benefits of novel acylated OXM products relative to the PEGylated OXM peptide were evaluated for GLP-1 and Glucagon activity in vitro, molecular weight, dosing, and efficacy in a DIO Mouse model.
(§2) The potency of the acylated OXM peptides was compared with the native OXM peptide alone and Pegylated OXM peptide to evaluate the impact of acylation on GLP-1 and Glucagon activities.

GCGR [2] = molecular target: T2, GCGR (Homo sapiens, UniProt P47871); assay: CBA potency assay, GCGR (Tables 10 and 11); format: cell-based
T2 sequence (P47871 26-477): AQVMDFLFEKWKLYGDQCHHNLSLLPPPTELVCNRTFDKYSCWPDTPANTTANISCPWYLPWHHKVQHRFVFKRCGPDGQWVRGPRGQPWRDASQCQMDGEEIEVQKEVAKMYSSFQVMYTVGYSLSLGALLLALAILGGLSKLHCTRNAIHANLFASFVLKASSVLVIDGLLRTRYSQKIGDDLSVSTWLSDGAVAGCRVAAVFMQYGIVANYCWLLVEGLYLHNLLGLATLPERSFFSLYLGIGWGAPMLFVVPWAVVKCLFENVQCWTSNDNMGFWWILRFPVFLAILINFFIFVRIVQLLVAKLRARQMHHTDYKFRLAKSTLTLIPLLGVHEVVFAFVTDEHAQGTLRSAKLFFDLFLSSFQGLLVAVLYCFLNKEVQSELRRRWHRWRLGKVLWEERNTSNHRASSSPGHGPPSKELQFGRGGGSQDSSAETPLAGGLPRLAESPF
Description: (§3) The impact of the longevity-enabling molecule (PEG Vs. FA-peptide/binder complex) on the peptide potency was studied.

GLP1 [3] = molecular target: T1, GLP1; assay: CBA potency assay, GLP1 (Tables 10 and 11); format: cell-based
Description: as §3

[4] = molecular target: T3, glucagon-like peptide-1 (GLP1) receptor (Homo sapiens, UniProt P43220); assay: GLP-1 activity EC50 of OXM analogs and GLP-1 therapeutics (Example 4, Table 9); format: cell-based; conditions: Example 4; read-out: GLP-1 activity (EC50)
T3 construct: expressed in transfected cells; host or cells: CHO-K1
T3 sequence (P43220 24-463): as the sequence (P43220 24-463) above
Description: The potencies of the modified OXM analogs newly disclosed in the present application, the OXM Analog alone, and the PEGylated OXM analog were examined and compared by measuring the EC50 of both receptors, glucagon-like peptide-1 (GLP1) and glucagon (GCGR).

GCGR [5] = molecular target: T2, GCGR; assay: Glucagon activity in vitro of PEGylated and acylated OXM peptide analogs (Table 12); format: cell-based; conditions: for GCGR/GLP-1R: ratio of EC50 activity
Experimental: as §1, §2

DIO mice = assay: Weight loss in DIO mice with OPK-88604 and OPK-88006, 30 nmoles/kg; format: in vivo; conditions: vs placebo
Experimental: The animals were individually weighed and analyzed for lipid and cholesterol levels prior to treatment and following completion of the study. The levels of fasting glucose and insulin levels were analyzed, and oral glucose tolerance test was performed and compared between groups The levels of plasma triglycerides and cholesterol were evaluated at the end of study and compared to base levels prior to treatment. Levels of total cholesterol, triglycerides and glycogen were also examined at the end of study. Histology of liver was used to analyze for lipid droplets in the liver. All tests were conducted using routine methods known in the art.
DIO mice with weights of around 55 grams were divided into three groups and treated with placebo, 30 nmoles/kg of OPK-88604, or 30 nmoles/kg of OPK-88006 for 4 weeks. The animals were weighed daily for the period of treatment.

[6] = Viscosity of the formulated PEGylated OXM product; format: physicochemical

EC50 (GLP1 [1]): 0.0168 nM | % EC50 compare to KPI (GCGR) (GCGR [2]; Table 10): 100% | EC50 (GCGR [2]; Table 10): 0.6 nM | EC50 ratio (GCGR\GLP-1R) (GCGR [2]; Table 10): 4.7 | % EC50 compare to KPI (GCGR) (GCGR [2]; Table 11, + HSA): 129% | EC50 (GCGR [2]; Table 11, + HSA): 1.06 nM | EC50 ratio (GCGR\GLP-1R) (GCGR [2]; Table 11, + HSA): 5.7 | % EC50 compare to KPI (GCGR) (GCGR [2]; Table 11, without HSA): 100% | EC50 (GCGR [2]; Table 11, without HSA): 1.37 nM | EC50 ratio (GCGR\GLP-1R) (GCGR [2]; Table 11, without HSA): 6.8 | % EC50 compare to KPI (GLP1) (GLP1 [3]; Table 10): 100% | EC50 (GLP1 [3]; Table 10): 0.127 nM | % EC50 compare to KPI (GLP1) (GLP1 [3]; Table 11, + HSA): 107% | EC50 (GLP1 [3]; Table 11, + HSA): 0.187 nM | % EC50 compare to KPI (GLP1) (GLP1 [3]; Table 11, without HSA): 100% | EC50 (GLP1 [3]; Table 11, without HSA): 0.201 nM | EC50 [4]: 0.105 nM | EC50 (GCGR [5]): 0.0731 nM | GCGR/GLP-1R (GCGR [5]): 4.4
Compound: CC[C@H](C)[C@H](NC(=O)[C@H](CC(N)=O)NC(=O)[C@H](CC(N)=O)NC(=O)[C@H](CCCNC(=N)N)NC(=O)[C@H](CC(N)=O)NC(=O)[C@H](CCCNC(=N)N)NC(=O)CNC(=O)C(C)(C)NC(=O)[C@H](CC(N)=O)NC(=O)[C@H](CC(C)C)NC(=O)[C@H](CC(C)C)NC(=O)[C@H](Cc1c[nH]c2ccccc12)NC(=O)[C@H](CCC(N)=O)NC(=O)[C@@H](NC(=O)[C@H](Cc1ccccc1)NC(=O)[C@H](CCC(=O)O)NC(=O)[C@H](CCC(N)=O)NC(=O)[C@H](C)NC(=O)[C@H](CCCCN)NC(=O)[C@H](CCCCN)NC(=O)[C@H](CO)NC(=O)[C@H](CC(=O)O)NC(=O)[C@H](CC(C)C)NC(=O)[C@H](Cc1ccc(O)cc1)NC(=O)[C@H](CCCCN)NC(=O)[C@H](CO)NC(=O)[C@H](Cc1ccc(O)cc1)NC(=O)[C@H](CC(=O)O)NC(=O)[C@H](CO)NC(=O)[C@@H](NC(=O)[C@H](Cc1ccccc1)NC(=O)[C@@H](NC(=O)CNC(=O)[C@H](CCC(N)=O)NC(=O)C(C)(C)NC(=O)[C@@H](N)Cc1c[nH]cn1)[C@@H](C)O)[C@@H](C)O)C(C)C)C(=O)N[C@@H](C)C(=O)N[C@@H](CS)C(=O)N[C@@H](CS)C(N)=O [OPK-88003 KPI]

EC50 (GLP1 [1]): 0.019 nM | EC50 (GCGR [5]): 0.31 nM | GCGR/GLP-1R (GCGR [5]): 16.3
Compound: CC[C@H](C)[C@H](NC(=O)[C@H](CC(N)=O)NC(=O)[C@H](CC(N)=O)NC(=O)[C@H](CCCNC(=N)N)NC(=O)[C@H](CC(N)=O)NC(=O)[C@H](CCCNC(=N)N)NC(=O)CNC(=O)C(C)(C)NC(=O)[C@H](CC(N)=O)NC(=O)[C@H](CC(C)C)NC(=O)[C@H](CC(C)C)NC(=O)[C@H](Cc1c[nH]c2ccccc12)NC(=O)[C@H](CCC(N)=O)NC(=O)[C@@H](NC(=O)[C@H](Cc1ccccc1)NC(=O)[C@H](CCC(=O)O)NC(=O)[C@H](CCC(N)=O)NC(=O)[C@H](C)NC(=O)[C@H](CCCCN)NC(=O)[C@H](CCCCN)NC(=O)[C@H](CO)NC(=O)[C@H](CC(=O)O)NC(=O)[C@H](CC(C)C)NC(=O)[C@H](Cc1ccc(O)cc1)NC(=O)[C@H](CCCCN)NC(=O)[C@H](CO)NC(=O)[C@H](Cc1ccc(O)cc1)NC(=O)[C@H](CC(=O)O)NC(=O)[C@H](CO)NC(=O)[C@@H](NC(=O)[C@H](Cc1ccccc1)NC(=O)[C@@H](NC(=O)CNC(=O)[C@H](CCC(N)=O)NC(=O)C(C)(C)NC(=O)[C@@H](N)Cc1c[nH]cn1)[C@@H](C)O)[C@@H](C)O)C(C)C)C(=O)N[C@@H](C)C(=O)N[C@@H](CCCCNC(=O)COCCOCCNC(=O)COCCOCCNC(=O)CC[C@H](NC(=O)CCCCCCCCCCCCCCCCCCC(=O)O)C(=O)O)C(=O)NCC(N)=O [Variant 5] (H-H[Aib]QGTFTSDYSKYLDSKKAQEFVQWLLN[Aib]GRNRNNIAK([AEEA-AEEA-γGlu-C20 diacid])G-NH2)
weight loss over 4 weeks (FIG. 41A, 41B) (DIO mice): significant weight loss over 4 weeks

Compound: OPK-88003 API: SEQ ID NO: 3 where Xaa38=Cys-PEG20 and Xaa39=Cys-PEG20
viscosity of the formulated product [6]: high viscosity
